According to patent US20220340899A1, “STEREOSELECTIVE PH RESPONSIVE PEPTIDE DENDRIMERS FOR NUCLEIC ACID TRANSFECTION” (UNIVERSITÄT BERN, priority 2019, published 2022):
Where “and” joins values, the source holds several entries; their conditions need not be identical. Equal entries are not always repeated. Where two headings read alike, the source gives them in different places. Bridges are numbered along the chain shown (N, C = ends). Roman numbers before positions name the chains, in order. Side-chain parts run from the residue outwards.

Tests used:
[1] = for D [m^2 · s^−1] · 10^−11: 15 mg/mL, 303 K; for Rh [nm]: calculated from D by Stokes-Einstein
Description: Diffusion NMR (DOSY) Measurements: Diffusion NMR experiments were performed using a Bruker DRX500 with solutions of dendrimer (15 mg/mL) in D2O (pH 5 or 7.4, at 303 K). The gradient with a maximum strength of 50×10^−4 T·cm^−1 was calibrated using the HOD proton signal in D2O (99.997%). The diffusion time was 125 ms and the gradient duration ? was 6 ms. Data analysis was performed by using the Bruker Simfit software and the diffusion coefficient D [m^2s^−1] was derived from peak area and intensities. The hydrodynamic radii were calculated from the diffusion coefficient D using the Stokes-Einstein equation Rh=kT/6πηD with Boltzmann constant k=1.380×10^−23 JK^−1, temperature T in K and viscosity η=1.089 mPa. s for D2O at 303 K.

[2] = Dynamic light scattering and zeta potential of siRNA complexes; format: physicochemical; conditions: for zeta potential: siRNA complexes (800 nM siRNA, N/P 10 or L2000 2:1)
Description: Dynamic Light Scattering (DLS): Complexes were formed in phosphate buffer (PB) at pH 5 or pH 7.4 with siRNA (80 μmol, 1.6 μL from a 50 μM Milli-Q water solution in 50 μL PB at pH 5 or pH 7.4) and peptide dendrimers (N/P ratio of 10, 1680 μmol, 10-14 μL from a 1 mg/mL Milli-Q water solution in 50 μL PB at pH 5 or pH 7.4) or L2000 (w/w ratio of 2:1, 2.128 μg, 2.128 μL from the 1 mg/mL commercial solution in 50 μL PB at pH 5 or pH 7.4) and incubated at room temperature for 30 minutes (100 μL, final concentration of 800 nM siRNA and 16.8 μM i.e. 120 μg/mL peptide dendrimers or 21.28 μg/mL L2000). Then, 50 μL was transferred to a low-volume Univette (Sigma aldrich, Buchs, CH). The dynamic light scattering and Zeta potential were then measured on an Anton Paar Litesizer 500 (Buchs, CH) and the data processed by the software provided by the manufacturer (Kalliope) using the “number of particles” parameter.

[3] = Critical micellar concentration / aggregation by Nile red assay; format: physicochemical; conditions: for self-aggregation (Nile Red assay): PB pH 7.4 and pH 5; for aggregation as function of pH: 0.1 mg/mL, PB pH 5-7.4
Description: Critical Micellar Concentration (CMC): Nile red is known to have a higher fluorescence when being surrounded by a hydrophobic environment and this experiment is derived from known procedure but applied to 96-well plates. To see if the CMC determination is working in our hands with our assay, we first performed it with dodecylphosphocholine and found a value of 0.3125 mg/mL, corresponding to 0.9 mM which is in accordance with values between 0.9 and 1.1 mM from literature (data not shown). Briefly, Nile red (Sigma aldrich, Buchs, CH) was diluted in methanol at a concentration of 2 μM and 5 μL was added to each well of a TPP 96-well plate (Faust Laborbedarf AG, Schaffhausen) and dry under the fumehood air flow at room temperature for 1 h. Serial dilution of the peptide dendrimers, L2000 and dodecylphosphocholine (Avanti polar lipids, Alablaster, USA) were performed in 10 mM phosphate buffer (pH 5 or pH 7.4) starting from 1 mg/mL to 0.5 μg/mL and 50 μL was added to the plate containing the dried Nile red fluorophore (final concentration 0.2 μM). For the second experiment, solution of peptide dendrimers at 1 mg/mL in Milli-Q water were diluted to 0.1 mg/mL in 100 μL PB at pH ranging from 7.4 to 4 and added to dried Nile red. The plates were incubated for 2 h before measurement of fluorescence at λex=540 nm and λem=615 nm on a Tecan Infinite M1000 Pro plate reader. CMC values can be determined at the inflection point of the curves.

cells = experiment: Cell viability by AlamarBlue assay after transfection; format: cell-based; conditions: in transfection experiments
Description: Cell Viability by AlamarBlue® Assay: Cells were transfected in TPP 96-well plates as previously described. Following transfections, the medium was removed and replaced with 10% AlamarBlue® (Thermo Fisher Scientific, Reinach, CH) in DMEM supplemented with 10% FCS. Cells were incubated for 4-24 h at 37° C. in a humidified atmosphere in 5% carbon dioxide. Then, plates were measured on a Tecan Infinite M1000 Pro plate reader at λex=560 nm and λem=590 nm and value normalized to the one of untreated cells.

[4] = tested on: HT-1080, PC-3, MCF-7, SH-SY5Y and Caco-2 cell lines; experiment: siRNA transfection, GAPDH knock-down in five additional cell lines; format: cell-based; conditions: including SH-SY5Y and Caco-2
Description: siRNA Transfection and Protein Quantitation: HeLa, CHO, PC3, SH-SY5Y, Caco-2 and MCF-7 cells were seeded in TPP 96-well plates (Faust Laborbedarf AG, Schaffhausen) at 5×10^3 cells per well the day before transfection. The 96-well plates were coated with poly-L-Lysine (Sigma aldrich, Buchs, CH) for 1 h and dried under a flow of air in the fumehood at RT before plating HEK-293 and HT-1080 at 5×10^3 cells per well the day before transfection. Cells were always used in their exponential phase for transfection and with a number of passages between 3 to 20. The siRNA transfection complexes were formed in OptiMEM by mixing siRNA (1-20 μmol, 0.02-0.4 μL from a 50 μM Milli-Q water solution in 6.25 μL OptiMEM) with peptide dendrimers (N/P ratio of 1-100, 21-420 μmol, 0.1-3.5 μl from a 1 mg/mL Milli-Q water solution in 6.25 μL OptiMEM) or L2000 (w/w ratio of 0.5:1-2:1, 0.0665-0.266 μg, 0.0665-0.266 μL from the 1 mg/mL commercial solution in 6.25 μL OptiMEM) at room temperature for 30 minutes (12.5 μL, concentration of 80-1600 nM siRNA and 1.68-33.6 μM i.e. 12-240 μg/mL peptide dendrimers or 5.32-21.28 μg/mL L2000). […] Briefly, medium was removed, cells were lysed with 200 μL cold lysis buffer, 2-10 μL of lysis buffer from each well was taken to a new 96 well plate containing 90 μL Master Mix and fluorescence measured at λex=560 nm and λem=590 nm on a Tecan Infinite M1000 Pro plate reader.

[5] = pH 5, particle volume divided by volume of monomer of 2 nm radius
[6] = pH 7.4, particle volume divided by volume of monomer of 2 nm radius

Substance	D [m^2 · s^−1] · 10^−11 ([1]; pH 5, D2O)	Rh [nm] ([1]; pH 5, D2O)	dendrimer/aggregate [1, 5]	D [m^2 · s^−1] · 10^−11 ([1]; pH 7.4, D2O)	Rh [nm] ([1]; pH 7.4, D2O)	dendrimer/aggregate [1, 6]	zeta potential ([2]; pH 5.0)	zeta potential ([2]; pH 7.4)	self-aggregation (Nile Red assay) [3]	aggregation as function of pH [3]	particle size (in words) ([2]; DLS)	cell toxicity / cell viability (cells)	GADPH knock-down in five additional cell lines [4]
(KL)8(KKL)4(KKL)2KLLLL [MH46]	10.27 ± 0.02 [m^2 · s^−1] · 10^−11	1.98 nm and 1.98 ± 0.03 nm	~1	9.89 ± 0.04 [m^2 · s^−1] · 10^−11	2.06 nm and 2.06 ± 0.07 nm	~1	+13.3 mV	+10.4 mV	did not show any measurable aggregation				
(KL)8(KKL)4(KLL)2KK(C16)K(C16) [MH13]	4.92 ± 0.04 [m^2 · s^−1] · 10^−11	4.14 ± 0.03 nm	~9	4.17 ± 0.34 [m^2 · s^−1] · 10^−11	4.97 nm and 4.95 ± 0.44 nm	~15				aggregated at a lower pH than amino acid only dendrimers			
(KL)8(KKL)4(KLL)2KK(C26) [MH06]										aggregated at a lower pH than amino acid only dendrimers			
(KL)8(KKL)4(KLL)2KLLLL [MH18]	8.10 ± 0.12 [m^2 · s^−1] · 10^−11	2.52 nm and 2.52 ± 0.04 nm	~2	6.41 ± 0.59 [m^2 · s^−1] · 10^−11	3.21 nm and 3.21 ± 0.27 nm	~4							
(KL)8(KLL)4(KLL)2KLLLL [MH47] (I: H-KLK([Leu-Lys])LLKLLKLLLL-NH2 / II: H-KLK([Leu-Lys])LLKLL / III: H-KLK([Leu-Lys])LL / IV: H-KLK([Leu-Lys])LL; amide I:6-IV:C, I:9-II:C, II:6-III:C; SMILES CC(C)C[C@H](NC(=O)[C@H](CC(C)C)NC(=O)[C@H](CC(C)C)NC(=O)[C@H](CC(C)C)NC(=O)[C@H](CCCCNC(=O)[C@H](CC(C)C)NC(=O)[C@H](CC(C)C)NC(=O)[C@H](CCCCNC(=O)[C@H](CC(C)C)NC(=O)[C@H](CC(C)C)NC(=O)[C@H](CCCCNC(=O)[C@H](CC(C)C)NC(=O)[C@@H](N)CCCCN)NC(=O)[C@H](CC(C)C)NC(=O)[C@@H](N)CCCCN)NC(=O)[C@H](CC(C)C)NC(=O)[C@H](CC(C)C)NC(=O)[C@H](CCCCNC(=O)[C@H](CC(C)C)NC(=O)[C@@H](N)CCCCN)NC(=O)[C@H](CC(C)C)NC(=O)[C@@H](N)CCCCN)NC(=O)[C@H](CC(C)C)NC(=O)[C@H](CC(C)C)NC(=O)[C@H](CCCCNC(=O)[C@H](CC(C)C)NC(=O)[C@H](CC(C)C)NC(=O)[C@H](CCCCNC(=O)[C@H](CC(C)C)NC(=O)[C@@H](N)CCCCN)NC(=O)[C@H](CC(C)C)NC(=O)[C@@H](N)CCCCN)NC(=O)[C@H](CC(C)C)NC(=O)[C@H](CC(C)C)NC(=O)[C@H](CCCCNC(=O)[C@H](CC(C)C)NC(=O)[C@@H](N)CCCCN)NC(=O)[C@H](CC(C)C)NC(=O)[C@@H](N)CCCCN)C(N)=O)									strong self-aggregation at both pH		largest particles		
(kl)8(kkl)4(kll)2kk(C16)k(C16) [DMH13]	4.37 ± 0.04 [m^2 · s^−1] · 10^−11	4.66 ± 0.05 nm	~12	4.10 ± 0.08 [m^2 · s^−1] · 10^−11	4.95 nm and 4.97 ± 0.09 nm	~15	+40.3 mV	+17.7 mV		aggregated at a lower pH than amino acid only dendrimers		without significant toxicity to cells	effectively transfected all five cell lines
(kl)8(kkl)4(kll)2kllll [DMH18]	8.42 ± 0.09 [m^2 · s^−1] · 10^−11	2.42 nm and 2.42 ± 0.03 nm	~2	6.56 ± 0.29 [m^2 · s^−1] · 10^−11	3.11 nm and 3.11 ± 0.13 nm	~4						without significant toxicity to cells	effectively transfected all five cell lines
